Source: ChEMBL document CHEMBL5316343, “Design, Synthesis, and Biological Evaluation of a Potent Dual EZH2-BRD4 Inhibitor for the Treatment of Some Solid Tumors” (J Med Chem, 2023)
pIC50: −log10 of the molar value. Active and inactive are the calls of the source. No cut-off for these calls is given here.

Tests used:
[1] = tested on: BXPC-3; test: Induction of apoptosis in human BXPC-3 cells assessed as viable cells at 1 uM incubated for 48 hrs by Annexin V-FITC/PI staining based flow cytometric analysis (reference value: 90.70%); type: functional; conditions: read-out: Activity
[2] = AUC(0 to infinity) in ICR mouse at 60 mg/kg, ip measured upto 24 hrs by LC-MS/MS analysis; type: ADME, organism-based; set-up: time < 24 hrs, dose 60 mg/kg, route ip; conditions: in vivo
[3] = tested on: 95-D; test: Antiproliferative activity against human 95-D cells assessed as inhibition of cell proliferation incubated for 6 days by CCK8 assay; type: functional, cell-based; conditions: time 6.0 day
[4] = tested on: MDA-MB-231; test: Induction of apoptosis in human MDA-MB-231 cells assessed as late apoptotic cells at 5 uM incubated for 48 hrs by Annexin V-FITC/PI staining based flow cytometric analysis (reference value: 1.06%); type: functional
[5] = tested on: BXPC-3; test: Inhibition of cell proliferation in human BXPC-3 cells assessed as decrease in c-Myc mRNA level at 5 uM incubated for 48 hrs by qRT-PCR analysis; type: functional, cell-based
[6] = tested on: BXPC-3; test: Antitumor activity against human BXPC-3 cells xenografted in Balb/c nude mouse assessed as reduction in tumor growth at 30 mg/kg, ip administered daily for 30 days; type: functional, organism-based; conditions: time 30.0 day
[7] = molecular target: T1, Histone-lysine N-methyltransferase EZH2 (Homo sapiens, UniProt Q15910); test: Inhibition of EZH2 in human MDA-MB-231 cells assessed as decrease in H3K27me3 level at 5 uM by fluorescence based analysis; type: cell-based
T1 sequence (Q15910 whole entry, looked up): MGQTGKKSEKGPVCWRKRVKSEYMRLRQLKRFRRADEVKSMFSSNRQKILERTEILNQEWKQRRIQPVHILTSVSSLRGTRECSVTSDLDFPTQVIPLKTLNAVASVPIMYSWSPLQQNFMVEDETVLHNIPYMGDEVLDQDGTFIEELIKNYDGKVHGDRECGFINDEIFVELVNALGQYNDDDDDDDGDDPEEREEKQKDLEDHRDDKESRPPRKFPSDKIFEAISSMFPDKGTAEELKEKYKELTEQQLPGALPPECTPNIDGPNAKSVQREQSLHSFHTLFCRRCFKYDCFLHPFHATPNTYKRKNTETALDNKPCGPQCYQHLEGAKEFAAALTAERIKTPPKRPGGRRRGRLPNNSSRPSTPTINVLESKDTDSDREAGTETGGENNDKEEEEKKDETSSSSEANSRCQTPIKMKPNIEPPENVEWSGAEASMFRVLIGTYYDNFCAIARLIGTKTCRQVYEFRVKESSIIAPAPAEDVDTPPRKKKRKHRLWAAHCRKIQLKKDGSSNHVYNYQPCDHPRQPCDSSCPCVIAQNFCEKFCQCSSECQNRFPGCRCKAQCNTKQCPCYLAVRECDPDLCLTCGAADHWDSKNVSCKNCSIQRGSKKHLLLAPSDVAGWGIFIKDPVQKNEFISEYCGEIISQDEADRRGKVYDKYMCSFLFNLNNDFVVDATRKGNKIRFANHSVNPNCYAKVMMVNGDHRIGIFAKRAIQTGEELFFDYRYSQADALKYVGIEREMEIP

[8] = tested on: MDA-MB-231; test: Induction of apoptosis in human MDA-MB-231 cells assessed as early apoptotic cells at 2.5 uM incubated for 48 hrs by Annexin V-FITC/PI staining based flow cytometric analysis (reference value: 0.69%); type: functional
[9] = tested on: BXPC-3; test: Induction of apoptosis in human BXPC-3 cells assessed as early apoptotic cells at 2.5 uM incubated for 48 hrs by Annexin V-FITC/PI staining based flow cytometric analysis (reference value: 3.28 %); type: functional
[10] = Tmax in ICR mouse at 60 mg/kg, ip measured upto 24 hrs by LC-MS/MS analysis; type: ADME, organism-based; conditions: in vivo
[11] = molecular target: T1, Histone-lysine N-methyltransferase EZH2; test: Inhibition of EZH2 in human BX-PC-3 cells assessed as decrease in H3K27me3 level at 5 uM by fluorescence based analysis; type: cell-based; conditions: BXPC-3
[12] = tested on: BXPC-3; test: Induction of apoptosis in human BXPC-3 cells assessed as late apoptotic cells at 2.5 uM incubated for 48 hrs by Annexin V-FITC/PI staining based flow cytometric analysis (reference value: 4.38 %); type: functional
[13] = tested on: BXPC-3; test: Induction of apoptosis in human BXPC-3 cells assessed as early apoptotic cells at 1 uM incubated for 48 hrs by Annexin V-FITC/PI staining based flow cytometric analysis (reference value: 3.28 %); type: functional
[14] = molecular target: Bromodomain-containing protein 2 (Homo sapiens, UniProt P25440); test: Inhibition of BRD2-BD1/2 (unknown origin) by HTRF analysis
Chain of Bromodomain-containing protein 2 (P25440 whole entry): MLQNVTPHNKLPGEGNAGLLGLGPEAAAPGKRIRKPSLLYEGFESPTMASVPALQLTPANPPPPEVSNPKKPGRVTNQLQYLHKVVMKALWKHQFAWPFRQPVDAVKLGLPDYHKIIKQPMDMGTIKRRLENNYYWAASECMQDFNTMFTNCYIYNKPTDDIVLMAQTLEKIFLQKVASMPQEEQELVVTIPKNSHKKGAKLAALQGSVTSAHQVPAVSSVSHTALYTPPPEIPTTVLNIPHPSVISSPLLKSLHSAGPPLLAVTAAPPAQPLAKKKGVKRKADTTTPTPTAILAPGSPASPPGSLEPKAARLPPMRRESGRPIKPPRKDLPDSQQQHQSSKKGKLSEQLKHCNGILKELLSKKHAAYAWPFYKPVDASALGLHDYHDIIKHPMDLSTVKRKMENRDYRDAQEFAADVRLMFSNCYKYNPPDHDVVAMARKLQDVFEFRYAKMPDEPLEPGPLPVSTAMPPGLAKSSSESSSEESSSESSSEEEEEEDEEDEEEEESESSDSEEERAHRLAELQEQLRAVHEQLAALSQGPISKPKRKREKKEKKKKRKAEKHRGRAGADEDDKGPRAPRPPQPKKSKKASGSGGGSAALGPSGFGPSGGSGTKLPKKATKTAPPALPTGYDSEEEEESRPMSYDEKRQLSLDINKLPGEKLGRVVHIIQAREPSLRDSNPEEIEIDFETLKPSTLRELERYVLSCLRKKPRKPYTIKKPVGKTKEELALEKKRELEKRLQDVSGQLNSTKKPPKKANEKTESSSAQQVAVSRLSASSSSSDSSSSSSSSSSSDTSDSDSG

[15] = MRT(0 to infinity) in ICR mouse at 60 mg/kg, ip measured upto 24 hrs by LC-MS/MS analysis; type: ADME, organism-based; conditions: in vivo
[16] = tested on: MDA-MB-231; test: Induction of apoptosis in human MDA-MB-231 cells assessed as viable cells at 5 uM incubated for 48 hrs by Annexin V-FITC/PI staining based flow cytometric analysis (reference value: 97.63%); type: functional; conditions: read-out: Activity
[17] = tested on: T-24; test: Antiproliferative activity against human T24 cells assessed as inhibition of cell proliferation incubated for 6 days by CCK8 assay; type: functional, cell-based; conditions: time 6.0 day
[18] = molecular target: T2, Histone-lysine N-methyltransferase EZH1 (Homo sapiens, UniProt Q92800); test: Inhibition of EZH1 (unknown origin) by radiometric assay
T2 sequence (Q92800 whole entry): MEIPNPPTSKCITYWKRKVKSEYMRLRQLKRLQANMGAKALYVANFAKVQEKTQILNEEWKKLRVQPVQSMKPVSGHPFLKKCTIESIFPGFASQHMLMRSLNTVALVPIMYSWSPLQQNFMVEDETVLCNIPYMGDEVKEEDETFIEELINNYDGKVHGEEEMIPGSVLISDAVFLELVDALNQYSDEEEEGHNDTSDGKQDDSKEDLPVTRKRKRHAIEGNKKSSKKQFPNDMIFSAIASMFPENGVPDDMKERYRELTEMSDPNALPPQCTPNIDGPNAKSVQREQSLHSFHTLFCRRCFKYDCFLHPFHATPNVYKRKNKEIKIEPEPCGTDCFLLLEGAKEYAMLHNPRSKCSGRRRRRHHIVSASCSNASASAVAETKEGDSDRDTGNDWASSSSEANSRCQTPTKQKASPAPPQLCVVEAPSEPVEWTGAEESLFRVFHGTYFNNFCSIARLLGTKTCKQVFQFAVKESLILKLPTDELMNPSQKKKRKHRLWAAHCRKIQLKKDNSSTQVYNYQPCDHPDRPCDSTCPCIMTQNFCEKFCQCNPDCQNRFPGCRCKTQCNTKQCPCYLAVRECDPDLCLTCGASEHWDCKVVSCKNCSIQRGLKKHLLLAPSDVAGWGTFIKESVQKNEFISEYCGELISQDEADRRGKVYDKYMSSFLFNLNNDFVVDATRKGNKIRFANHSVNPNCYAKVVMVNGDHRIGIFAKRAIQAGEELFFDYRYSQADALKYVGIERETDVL

[19] = tested on: BXPC-3; test: Induction of apoptosis in human BXPC-3 cells assessed as necrotic cells at 5 uM incubated for 48 hrs by Annexin V-FITC/PI staining based flow cytometric analysis (reference value: 1.65 %); type: functional
[20] = tested on: MDA-MB-231; test: Induction of apoptosis in human MDA-MB-231 cells assessed as early apoptotic cells at 5 uM incubated for 48 hrs by Annexin V-FITC/PI staining based flow cytometric analysis (reference value: 0.69%); type: functional
[21] = AUC(0 to t) in ICR mouse at 60 mg/kg, ip measured upto 24 hrs by LC-MS/MS analysis; type: ADME, organism-based; set-up: time < 24 hrs, dose 60 mg/kg, route ip; conditions: in vivo
[22] = tested on: PANC-1; test: Antiproliferative activity against human PANC-1 cells assessed as inhibition of cell proliferation incubated for 6 days by CCK8 assay; type: functional, cell-based; conditions: time 6.0 day
[23] = tested on: MDA-MB-231; test: Inhibition of cell proliferation in human MDA-MB-231 cells assessed as decrease in c-Myc mRNA level at 5 uM incubated for 48 hrs by qRT-PCR analysis; type: functional, cell-based
[24] = Cmax in ICR mouse at 60 mg/kg, ip measured upto 24 hrs by LC-MS/MS analysis; type: ADME, organism-based; set-up: time < 24 hrs, dose 60 mg/kg, route ip; conditions: in vivo
[25] = tested on: BXPC-3; test: Induction of apoptosis in human BXPC-3 cells assessed as early apoptotic cells at 5 uM incubated for 48 hrs by Annexin V-FITC/PI staining based flow cytometric analysis (reference value: 3.28 %); type: functional
[26] = tested on: MDA-MB-231; test: Antiproliferative activity against human MDA-MB-231 cells assessed as inhibition of cell proliferation incubated for 6 days by CCK8 assay; type: functional, cell-based; conditions: time 6.0 day
[27] = Protein binding in mouse plasma assessed as bound fraction at 2 uM incubated for 5 hrs by equilibrium based LC-MS/MS analysis; type: ADME, cell-free; conditions: read-out: PPB (converted)
[28] = tested on: BXPC-3; test: Induction of apoptosis in human BXPC-3 cells assessed as late apoptotic cells at 1 uM incubated for 48 hrs by Annexin V-FITC/PI staining based flow cytometric analysis (reference value: 4.38 %); type: functional
[29] = tested on: PLC-PRF-5; test: Antiproliferative activity against human PLC-PRF-5 cells assessed as inhibition of cell proliferation incubated for 6 days by CCK8 assay; type: functional, cell-based; conditions: time 6.0 day

- AUC(0-inf) [2]: 2000 ng·h/mL
- inhibition [7]: Active
- Tmax [10]: 4.98 min
- inhibition [11]: Active
- pIC50 [14]: 7.51
- MRT inf [15]: 6.94 h
- pIC50 [18]: 5.59
- AUC(0-t) at 24 h [21]: 1820 ng·h/mL
- Cmax [24]: 2960 ng/mL
- fraction unbound at 5 h, 2 µM [27]: 0.009
Compound: CCC(C)n1ccc2c(C(=O)NCc3c(C)cc(C)[nH]c3=O)cc(-c3cn(C)c(=O)c4[nH]ccc34)cc21 (centres undefined)
- viability at 1 µM [1]: 82.6%
- Activity [3]: Active
- Activity [4]: 3.82%
- inhibition [5]: Active
- Activity [6]: inactive
- Activity [8]: 8.53%
- Activity [9]: 9.2%
- Activity [12]: 16.95%
- Activity [13]: 6.84%
- viability at 5 µM [16]: 81.1%
- Activity [17]: Active
- Activity [19]: 3.35%
- Activity [20]: 13.19%
- Activity [22]: Active
- inhibition [23]: Active
- Activity [25]: 10.73%
- Activity [26]: Active
- Activity [28]: 7.61%
- Activity [29]: Active
